From US12343429B2, “Method of delivery of DNA or RNA cargo unshielded lipid nanoparticles and compositions thereof” (NanoVation Therapeutics Inc., priority 2023, dated 2025)

Columns and labels:
[1] = Encapsulation efficiency (RiboGreen), particle size and PDI (Zetasizer Nano ZS) of LNPs; type: physicochemical; conditions: PEG-less mRNA-LNP, unmodified method, 27.4/50/22.6 (FIG. 6)
Experimental: Encapsulation efficiency was calculated by determining unencapsulated mRNA content by measuring the fluorescence upon the addition of RiboGreen™ to the mRNA-LNP (Fi) and comparing this value to the total mRNA content that is obtained upon lysis of the LNP by 2% Triton X-100 (Ft): % encapsulation=(Ft−Fi)/Ft×100.
The particle size and polydispersity index (PDI) were characterized using a Zetasizer Nano ZS™.

[2] = LNP formulability and stability through dialysis, concentration and storage; type: physicochemical; conditions: for physiochemical characteristics, modified method with 25 mM sodium acetate dilution: 1:2-1:3 volume ratio; for behaviour after dialysis and concentration/storage: PEG-less mRNA-LNP, unmodified method, 27.4/50/22.6; for ability to be formulated in PEG-less mRNA-LNPs: unmodified ethanol mixing method, ionizable lipid/DSPC/chol 27.4/50/22.6, N/P 9 (FIG. 6); for behaviour in dialysis: PEG-less mRNA-LNP 1/structural lipid/cholesterol 27.4/50/22.6, unmodified method; for viability of LNPs, modified method with 25 mM sodium acetate dilution: all ratios of LNP:NaOAc (v:v); for physiochemical properties/stability, modified method with 1× PBS dilution after T-mixing: all ratios of LNP:PBS tested, after dialysis and after concentration to >0.25 mg/mL and overnight storage
Experimental: Unless otherwise specified, the LNPs were prepared by dissolving mRNA or plasmid DNA (pDNA) in 25 mM sodium acetate, pH 4.0, while the lipid components at the mole % specified were dissolved in absolute ethanol. The lipids in ethanol and the nucleic acid cargo in buffer were combined in a 1:3 volume by volume ratio using a t-junction with dual-syringe pump. The solutions were pushed through the t-junction at a combined flow rate of 20 mL/min (5 mL/minute for the lipid-containing syringe, 15 mL/minute for the mRNA-containing syringe). The mixture was subsequently dialyzed overnight against at least ˜100 volumes of 1× phosphate buffered saline (PBS), pH 7.4 using Spectro/Por™ dialysis membranes (molecular weight cut-off 12 000-14 000 Da). The LNPs were concentrated as required with an Amicon Ultra™ 100 000 MWCO (molecular weight cut-off), regenerated cellulose concentrator.
After T-mixing, 1× phosphate buffered saline (PBS) or other buffer as indicated, was added to the formulation mixture in increasing ratios of LNP: 1× buffer prior to dialysis and gently mixed, followed by transfer to dialysis in 1×PBS (or other suitable buffer as indicated) followed by processing as usual.
After the T-mixing (see Materials and Methods above), 1× phosphate buffered saline (PBS) was added to the formulation mixture in increasing volume ratios of LNP: 1× PBS (as indicated in FIGS. 7A-F) prior to dialysis followed by gentle mixing and transfer of the mixture to a dialysis bag in 1×PBS overnight followed by processing as usual. […] Physiochemical characteristics (particle size, PDI and encapsulation %) were measured after dialysis and after dialysis and concentration of the LNPs to >0.25 mg/mL and overnight storage.

[3] = buffer-to-LNP ratio as low as 1:1 (v:v)
[4] = dilution ratios below 1:1 (v:v)

SMILES	PDI [1]	encapsulation efficiency [1]	behaviour after dialysis and concentration/storage [2]	ability to be formulated in PEG-less mRNA-LNPs [2]	also measured
CCCCCCC(CSCCCCCC(CCCCCSCC(CCCCCC)OC(=O)CCC1CCCCC1)N(C)CCCCO)OC(=O)CCC1CCCCC1 (stereo not drawn) [Ionizable lipid 16]	high	low	agglomerate after dialysis or were not stable after concentration/storage	undesirable physiochemical characteristics	stability, modified method with 1× PBS dilution ([2]; 1:2 (v:v) dilution): stable particles which did not agglomerate in dialysis; physiochemical characteristics, modified method with 25 mM sodium acetate dilution [2]: ideal physiochemical characteristics; stability, modified method with 25 mM sodium acetate dilution [2, 3]: stable PEG-less lcLNP compositions; stability, modified method with 25 mM sodium acetate dilution [2, 4]: agglomerated in dialysis
CCCCCCCCCCCCCC(=O)OC[C@H](COP(=O)([O-])OCC[N+](C)(C)C)OC(=O)CCCCCCCCCCCCC [DMPC, dimyristoylphosphatidylcholine]					physiochemical characteristics after concentration/storage ([2]; 12/DMPC/cholesterol 27.4/50/22.6, unmodified method (FIG. 13)): deteriorated after concentration/storage; physiochemical characteristics / behaviour upon dialysis ([2]; PEG-less LNP with 12 as ionizable lipid, helper lipid screen, unmodified method (FIG. 13)): less ideal physiochemical characteristics
CCCCCCCC/C=C\CCCCCCCC(=O)OC[C@H](COP(=O)([O-])OCC[N+](C)(C)C)OC(=O)CCCCCCC/C=C\CCCCCCCC [DOPC, dioleoylphosphatidylcholine]					behaviour in dialysis [2]: agglomerated in dialysis
CCCCCCCCCCCCCCCCCC(=O)OC[C@H](COP(=O)([O-])OCC[N+](C)(C)C)OC(=O)CCCCCCCCCCCCCCCCC [DSPC, distearoylphosphatidylcholine]					change in physiochemical characteristics after concentration and refrigerated storage ([2]; PEG-less mRNA-LNP 1/structural lipid/cholesterol 27.4/50/22.6, unmodified method (FIGS. 12A, 12B)): no change
CCCCCCCC/C=C\CCCCCCCC(=O)OC[C@H](COP(=O)(O)OCCN)OC(=O)CCCCCCC/C=C\CCCCCCCC [DOPE, dioleoylphosphatidylethanolamine]					behaviour in dialysis [2]: agglomerated in dialysis
CCCCCCCCCCCOC(=O)CCCCCN(CCO)CCCCCCCC(=O)OC(CCCCCCCC)CCCCCCCC [Ionizable lipid 21]				capable of being formulated	
CCCCCCCCCC(=O)OC(CCCCC1(CCCCC(CSC2CCCCC2)OC(=O)CCCCCCCCC)OCC(CCN(C)C)O1)CSC1CCCCC1 (stereo not drawn) [Ionizable lipid 12]	high	low	agglomerate after dialysis or were not stable after concentration/storage	undesirable physiochemical characteristics	viability of LNPs, modified method with 25 mM sodium acetate dilution [2]: viable PEG-less LNPs; stability, modified method with 1× PBS dilution ([2]; less than 1× volume of 1×PBS (1:0.25, 1:0.5, undiluted)): agglomerated upon dialysis; stability, modified method with 1× PBS dilution ([2]; ratios of at least 1:1 (v:v) addition of 1×PBS): stable after concentration and overnight storage
CCCCCCCCC(=O)OC(CCCCCC(CCCCCC(CSC1CCCCC1)OC(=O)CCCCCCCC)OC(=O)CCCN(C)C)CSC1CCCCC1 (stereo not drawn) [Ionizable lipid 1]				capable of being formulated	viability of LNPs, modified method with 25 mM sodium acetate dilution [2]: viable LNPs; physiochemical properties/stability, modified method with 1× PBS dilution after T-mixing [2]: acceptable physiochemical properties
CCCCCCCC(=O)OC(CCCCCC)CSCCCCCC(CCCCCSCC(CCCCCC)OC(=O)CCCCCCC)N(C)CCCCO (stereo not drawn) [Ionizable lipid 15]	high	low	agglomerate after dialysis or were not stable after concentration/storage	undesirable physiochemical characteristics	physiochemical characteristics, modified method with 25 mM sodium acetate dilution [2]: ideal physiochemical characteristics; physiochemical properties/stability, modified method with 1× PBS dilution after T-mixing [2]: agglomerated in dialysis; stability, modified method with 25 mM sodium acetate dilution [2, 3]: stable PEG-less lcLNP compositions; stability, modified method with 25 mM sodium acetate dilution [2, 4]: agglomerated in dialysis
CCCCCCCCC(CCCCCC)C(=O)OCCCCCC(CCCCCSCC(CCCCCC)OC(=O)CCC1CCCCC1)N(C)CCCCO (stereo not drawn) [Ionizable lipid 17]	high	low	agglomerate after dialysis or were not stable after concentration/storage	undesirable physiochemical characteristics	
